Laboratory results from patent publication US8809344B2, “Compounds, compositions, and methods for control of hepatitis C viral infections” (priority 2008, dated 2014).

Assays:
[1] = ATP viability assay (CellTiter-Glo) in replicon-harboring Huh7.5 cells; assay type: cell-based, human; conditions: human; 24 hours post-treatment; Huh7.5 cells harboring transient genotype 1b replicon
Procedure: Inhibition of HCV replication by AP0089652, AP0080978 (enantiomer 2 from Example 1) and AP0080977 (enantiomer 1 from Example 1) were assayed by exposing cells harboring an HCV genotype 1b replicons to the compounds and quantitating HCV replicon levels following exposure. The replicon used in these studies was a transient genotype 1b subgenomic replicon generated from the Con1 strain. In this replicon, the HCV internal ribosome entry site (IRES) within the 5′ non-translated region (NTR) drives expression of the first 32 amino acids of the core protein fused to humanized Renilla luciferase (hRluc). The encephalomycarditis IRES lies 3′ to the hRluc open reading frame (ORF) and drives expression of non-structural (NS) proteins NS3 through NS5B. Huh7.5 cells (U.S. patent application Ser. No. 10/534,571) harboring this replicon were seeded into 96-well plates at 20,000 cells per well in medium containing 10% FBS, 1× penicillin/streptomycin, 1× non-essential amino acids, and 100 ng/ml Fungizone. After a four hour attachment period, compound was added to wells using a five point 3-fold serial dilution series with four replicate treatments per dose. […] Compound-mediated HCV inhibition and toxicity were assayed 24 hours post-treatment using Renilla luciferase readout and an ATP viability assay (CellTiter-Glo, Promega, Madison, Wis., USA), respectively. […]

[2] = tested on: stable genotype 1b (Con1 strain) subgenomic replicon; assay: Log10 decrease in HCV replicon RNA in Clone VI cells, quantitative RT-PCR relative to GAPDH; assay type: cell-based, hepatitis C virus; conditions: 20 μM compound, 72 hours
Procedure: To quantify the effect of compound on HCV RNA replicon levels by measuring HCV replicon RNA levels, the Clone VI cell line, a human hepatoma cell line that contains a stable genotype 1b (Con1 strain) subgenomic replicon with the adaptive Ser1179Ile mutation was used (U.S. Pat. No. 7,049,428). Cells were seeded into 12-well plates (40,000 cells per well) in the absence of Geneticin™ (Invitrogen, Carlsbad, Calif., USA) and treated in triplicate four hours later with 20 μM compound, with a final DMSO percentage of 1% in a total volume of 1 ml. Total RNA was extracted 72 hours later, and HCV and GAPDH RNA levels were quantified via quantitative RT-PCR. The log 10 decrease in HCV RNA levels was quantified relative to GAPDH RNA levels using the comparative Ct (threshold cycle) method (Applied Biosystems, Foster City, Calif., USA).
Additional compounds of formula (I) shown in FIG. 1 were also shown to inhibit HCV RNA replication. The effects of various compounds of formula (I) on HCV RNA replicon levels were determined by measuring HCV replicon RNA levels in cells treated with various concentrations of the compounds. […] Total RNA was extracted 72 hours later, and HCV and GAPDH RNA levels were quantified via quantitative RT-PCR. […]

[3] = tested on: HCV genotype 1b subgenomic replicon (Con1 strain); assay: microbe, parasite or virus in culture; assay type: cell-based; conditions: Hepatitis C virus; 24 hours post-treatment; Renilla luciferase; Huh7.5 cells
Source text: The replicon used in these studies was a transient genotype 1b subgenomic replicon generated from the Con1 strain. In this replicon, the HCV internal ribosome entry site (IRES) within the 5′ non-translated region (NTR) drives expression of the first 32 amino acids of the core protein fused to humanized Renilla luciferase (hRluc). The encephalomycarditis IRES lies 3′ to the hRluc open reading frame (ORF) and drives expression of non-structural (NS) proteins NS3 through NS5B. Huh7.5 cells (U.S. patent application Ser. No. 10/534,571) harboring this replicon were seeded into 96-well plates at 20,000 cells per well in medium containing 10% FBS, 1× penicillin/streptomycin, 1× non-essential amino acids, and 100 ng/ml Fungizone. After a four hour attachment period, compound was added to wells using a five point 3-fold serial dilution series with four replicate treatments per dose. Final DMSO percentage was 1% in a total volume of 200 ul. Compound-mediated HCV inhibition and toxicity were assayed 24 hours post-treatment using Renilla luciferase readout and an ATP viability assay (CellTiter-Glo, Promega, Madison, Wis., USA), respectively.

[4] = tested on: genotype 1b (Con1 strain) replicon with NS4B F1809L mutation; assay: F1809L mutant reporter replicon IVT RNA in Huh7.5 cells; assay type: cell-based; conditions: Hepatitis C virus
Source text: To identify nucleotide changes that confer resistance to 80978, replicon RNA was reverse transcribed and amplified from total RNA extracted from 80978-resistant and control Clone A cells. […] One silent mutation at amino acid 1771 was also observed. Each mutation was introduced independently into a stable genotype 1b (Con1 strain) subgenomic reporter replicon plasmid via site-directed mutagenesis. […] The sequence of the wild type NS4B encoding sequence is provided as SEQ ID NO:1, the sequence of the mutated NS4B nucleotide sequence encoding the F1809V mutation is provided as SEQ ID NO:3, and the sequence of the mutated NS4B nucleotide sequence encoding the F1809L mutation is provided as SEQ ID NO:5. The sequence of the wild type NS4B protein is provided as SEQ ID NO:2, the sequence of the mutated NS4B protein with the F1809V mutation is provided as SEQ ID NO:4, and the sequence of the mutated NS4B nucleotide sequence encoding the F1809L mutation is provided as SEQ ID NO:6. […] A differential response was observed between cells electroporated with different replicon RNAs.

## O=C(NCc1cccs1)c1nn2c(c1Cl)N[C@H](c1ccco1)C[C@@H]2C(F)(F)F (single isomer, unassigned) [Compound 80978]
[1]
  CC50 at 24 h: > 100 µM
[2]
  Log RNA decrease at [μM]: 1.16 @ 20 μM
[3]
  EC50: 1.8 µM
[4]
  EC50: > 22.5 µM
